Data on ten compounds can be found in ChEMBL document CHEMBL1201862, “PubChem BioAssay data set” (2004).

Holding throughout (experiment): NCI tumour cell line growth inhibition, 48 h
Assay [1] concerns 786-0.
Assay [2] has as its system A498.
Assay [3] deals with DU-145.
Assay [4] relates to HL-60.
The subject of assay [5] is HT-29.
Assay [6] concerns M14.
The test system of assay [7] is MDA-MB-231.
Assay [8] concerns MDA-MB-435.
Assay [9] deals with Malme-3M.
Assay [10] has as its system NCI-H460.
The subject of assay [11] is OVCAR-3.
Assay [12] relates to OVCAR-4.
Assay [13] concerns OVCAR-8.
Assay [14] relates to PC-3.
The test system of assay [15] is SF-268.
Assay [16] deals with SK-MEL-5.
Assay [17] concerns SK-OV-3.
Assay [18] concerns SNB-75.
The subject of assay [19] is UACC-257.
Assay [20] deals with UO-31.

Structures are written as SMILES.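 Grown in 96-well plates, cells were treated for 48 hours with each compound at five concentrations. Insufficient inhibition: endpoint recorded as highest concentration tested. Abbreviation: GI50, concentration required for 50% inhibition of growth.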 Calls of active or inactive are those of the source. No stated cut-off is given here; in the data, active = GI50 up to about 1.1 µM and inactive = higher.

Take `CN(C)Cc1cc(C(F)(F)F)ccc1C(O)(c1ccccc1)c1ccccc1`: the GI50 in [1] was 14.2 µM (inactive); in [2] it was 11.7 µM (inactive); in assay [3], 26.7 µM (inactive); in assay [4] it was 7.76 µM (inactive); in [5] it was 5.05 µM (inactive); in assay [6], 12.4 µM (inactive). Also, the GI50 was 11.9 µM (inactive) in assay [7]; 18.8 µM (inactive) in [8]; 15.2 µM (inactive) in assay [9]; 14.6 µM (inactive) in assay [10]; 27.8 µM (inactive) in assay [11]; 16.4 µM (inactive) in assay [12]. The GI50 in [13] is 17.9 µM (inactive); in assay [14], 14.1 µM (inactive); in assay [15] it was 15.3 µM (inactive); in assay [16], 14.1 µM (inactive); in assay [17], 17.4 µM (inactive); in assay [18], 8.55 µM (inactive). In addition, the GI50 in [19] is 11.6 µM (inactive); in [20], 12.1 µM (inactive).

With `COc1ccc(SCc2cc(OC)c(OC)c(OC)c2)cc1OC`, the GI50 is > 100 µM (inactive) in assay [1]; 40.9 µM (inactive) in [2]; > 100 µM (inactive) in assay [3]; 30.8 µM (inactive) in assay [4]; 67.6 µM (inactive) in assay [5]; 64.1 µM (inactive) in assay [6]. For the same compound, the GI50 was 57 µM (inactive) in assay [7]; 11.2 µM (inactive) in assay [8]; 55.2 µM (inactive) in assay [9]; > 79.6 µM (inactive) in assay [10]; > 56 µM (inactive) in assay [11]; 22 µM (inactive) in assay [12]. Further, the GI50 is > 80.2 µM (inactive) in assay [13]; 31.3 µM (inactive) in assay [14]; > 100 µM (inactive) in assay [15]; 15.8 µM (inactive) in assay [16]; 50.1 µM (inactive) in assay [17]; 17.7 µM (inactive) in assay [18]. The GI50 was 45.6 µM (inactive) in assay [19] and 27.9 µM (inactive) in [20].

As to `OC(CC(O)(C(F)(F)F)C(F)(F)F)c1ccc(C(O)CC(O)(C(F)(F)F)C(F)(F)F)cc1` (stereo not given), the GI50 in assay [1] is 20.4 µM (inactive); in assay [2] it was 12.6 µM (inactive); in [3], 15 µM (inactive); in [4], 17.1 µM (inactive); in assay [5], 12.3 µM (inactive); in assay [6], 15.9 µM (inactive). Further, the GI50 is 14.3 µM (inactive) in assay [7]; 18.2 µM (inactive) in [8]; 14.2 µM (inactive) in [9]; 14.7 µM (inactive) in assay [10]; 6.38 µM (inactive) in assay [11]; 15.7 µM (inactive) in [12]. The GI50 in assay [13] is 15.9 µM (inactive); in assay [14] it was 18.2 µM (inactive); in [15], 14.9 µM (inactive); in assay [16] it was 13.9 µM (inactive); in assay [17], 17 µM (inactive); in assay [18], 17.5 µM (inactive). Also, the figures for the GI50 in assay [19] and in assay [20] were 18.1 µM (inactive) and 10.8 µM (inactive), respectively.

For the compound `CC(=O)c1csc2c1C(=O)c1scc(C(C)=O)c1C2=O`, the GI50 in [1] was 2.05 µM (inactive); in assay [2] it was 1.54 µM (inactive); in [3] it was 1.87 µM (inactive); in assay [4], 0.112 µM (active); in [5], 2.28 µM (inactive); in assay [6] it was 1.63 µM (inactive). Also, the GI50 in [7] was 0.348 µM (active); in [8], 0.188 µM (active); in [9] it was 1.49 µM (inactive); in [10], 1.03 µM (active); in assay [11] it was 0.231 µM (active); in assay [12] it was 0.587 µM (active). For the same compound, the GI50 in assay [13] is 1.54 µM (inactive); in assay [14] it was 2.84 µM (inactive); in [15] it was 1.47 µM (inactive); in assay [16], 1.44 µM (inactive); in [17] it was 2.22 µM (inactive); in [18] it was 2.03 µM (inactive). For the same compound, the results for the GI50 in assay [19] and in assay [20] were 0.942 µM (active) and 2 µM (inactive), respectively.

With `Cc1[nH]c2ncn(Nc3ccccc3)c(=N)c2c1Cc1ccccc1`, the GI50 in assay [1] was 66.1 µM (inactive); in assay [2], 33 µM (inactive); in assay [3], 35.4 µM (inactive); in assay [4] it was 1.73 µM (inactive); in assay [5] it was 2.6 µM (inactive); in [6] it was 0.162 µM (active). The GI50 was 61.7 µM (inactive) in [7]; 0.491 µM (active) in assay [8]; > 38.7 µM (inactive) in assay [9]; 14.3 µM (inactive) in assay [10]; 30.1 µM (inactive) in assay [11]; > 27.5 µM (inactive) in assay [12]. Moreover, the GI50 in assay [13] is 32.9 µM (inactive); in assay [14] it was 23.4 µM (inactive); in assay [15], > 100 µM (inactive); in [16], 0.386 µM (active); in assay [17], > 100 µM (inactive); in [18], 71.3 µM (inactive). Also, the figures for the GI50 in [19] and in [20] were 0.462 µM (active) and > 100 µM (inactive), respectively.

For `CCOC(=O)C(=CNC(=S)Nc1c(CC)cccc1CC)C(=O)OCC`, the GI50 in [1], in assay [2], in assay [3], in [4], in [5] and in assay [6] was > 100 µM (inactive) each time. Moreover, the GI50 in assay [7], in [8], in assay [9], in assay [10], in [11] and in assay [12] was > 100 µM (inactive) each time. Moreover, the GI50 is > 100 µM (inactive) in assay [13]; > 100 µM (inactive) in assay [14]; > 100 µM (inactive) in assay [15]; > 100 µM (inactive) in [16]; > 100 µM (inactive) in assay [17]; 12.8 µM (inactive) in assay [18]. In addition, the GI50 in [19] and in assay [20] was > 100 µM (inactive) throughout.

In the case of `CCCCCCCCC/C=C1\CCC(CN2CCOCC2)C1=O` (stereo not given), the GI50 was 1.3 µM (inactive) in assay [1]; 12 µM (inactive) in assay [2]; 4.65 µM (inactive) in assay [3]; 1.67 µM (inactive) in assay [4]; 2.88 µM (inactive) in assay [5]; 3.23 µM (inactive) in assay [6]. In addition, the GI50 was 2.96 µM (inactive) in [7]; 2.36 µM (inactive) in [8]; 7.08 µM (inactive) in assay [9]; 7.26 µM (inactive) in assay [10]; 8.55 µM (inactive) in [11]; 3.72 µM (inactive) in assay [12]. The GI50 in assay [13] was 1.82 µM (inactive); in assay [14], 1.79 µM (inactive); in [15] it was 3.94 µM (inactive); in assay [16] it was 6.65 µM (inactive); in assay [17], 17.3 µM (inactive); in [18], 6.17 µM (inactive). Besides, the GI50 was 3.99 µM (inactive) in assay [19] and 4.95 µM (inactive) in [20].

Consider `CCO[C@@]1(COCc2ccccc2)OC(=O)C[C@@H]1N1C(=O)OC[C@@H]1c1ccccc1`, for which the GI50 in assay [1] is > 100 µM (inactive); in assay [2], > 100 µM (inactive); in assay [3], > 100 µM (inactive); in assay [4] it was 42.8 µM (inactive); in assay [5] it was > 100 µM (inactive); in [6] it was > 100 µM (inactive). Also, the GI50 in assay [7] was > 100 µM (inactive); in assay [8], > 100 µM (inactive); in assay [9], > 100 µM (inactive); in assay [10] it was > 100 µM (inactive); in assay [11] it was 41.5 µM (inactive); in assay [12] it was > 100 µM (inactive). For the same compound, the GI50 in [13], in assay [14], in assay [15], in assay [16], in [17] and in [18] was > 100 µM (inactive) each time. For the same compound, the GI50 in assay [19] and in assay [20] was > 100 µM (inactive) throughout.

Take `N/C(=N\N/C=C1\C=Nc2cc(C(F)(F)F)ccc2C1=O)NO`: the GI50 in assay [1], in [2], in assay [3], in [4], in assay [5] and in [6] was > 10 µM (inactive) in each case. Also, the GI50 in [7], in assay [8], in [9], in assay [10], in [11] and in [12] was > 10 µM (inactive) in each case. The GI50 in [13] is > 10 µM (inactive); in assay [14], > 10 µM (inactive); in [15], > 10 µM (inactive); in assay [16], > 10 µM (inactive); in assay [17], > 10 µM (inactive); in assay [18], 0.148 µM (active). Besides, the GI50 in assay [19] and in assay [20] was > 10 µM (inactive) each time.

Take `COc1ccc(-c2cc(=O)c3c(O)c(OC)c(O)cc3o2)cc1O`: the GI50 in [1] was 4.95 µM (inactive); in assay [2], 4.9 µM (inactive); in assay [3], 7.64 µM (inactive); in assay [4], 1.25 µM (inactive); in [5], 16 µM (inactive); in assay [6], 3.4 µM (inactive). The GI50 was 5.51 µM (inactive) in [7]; 0.582 µM (active) in [8]; 1.3 µM (inactive) in [9]; 3.3 µM (inactive) in [10]; 9.04 µM (inactive) in assay [11]; 50.5 µM (inactive) in assay [12]. In addition, the GI50 in [13] is 9.55 µM (inactive); in assay [14], 10 µM (inactive); in assay [15], 10.7 µM (inactive); in [16], 3.41 µM (inactive); in [17], 6.28 µM (inactive); in assay [18], 3.65 µM (inactive). Also, the GI50 in assay [19] was 8.02 µM (inactive); in [20] it was 6.27 µM (inactive).
